Data from PMC3579865, “An Albumin-Derived Peptide Scaffold Capable of Binding and Catalysis” (PLoS ONE, 2013).

Biological target: T1, human serum albumin (HSA) (Homo sapiens, UniProt P02768)
T1 construct: gene ALB; native full-length HSA, essentially fatty acid free; also measured on GST-HSA100 (A194 to E294)
Assay: tryptophan fluorescence quenching titration (Stern-Volmer and Hill analysis)
Assay type: binding

T1 sequence (P02768 25-609): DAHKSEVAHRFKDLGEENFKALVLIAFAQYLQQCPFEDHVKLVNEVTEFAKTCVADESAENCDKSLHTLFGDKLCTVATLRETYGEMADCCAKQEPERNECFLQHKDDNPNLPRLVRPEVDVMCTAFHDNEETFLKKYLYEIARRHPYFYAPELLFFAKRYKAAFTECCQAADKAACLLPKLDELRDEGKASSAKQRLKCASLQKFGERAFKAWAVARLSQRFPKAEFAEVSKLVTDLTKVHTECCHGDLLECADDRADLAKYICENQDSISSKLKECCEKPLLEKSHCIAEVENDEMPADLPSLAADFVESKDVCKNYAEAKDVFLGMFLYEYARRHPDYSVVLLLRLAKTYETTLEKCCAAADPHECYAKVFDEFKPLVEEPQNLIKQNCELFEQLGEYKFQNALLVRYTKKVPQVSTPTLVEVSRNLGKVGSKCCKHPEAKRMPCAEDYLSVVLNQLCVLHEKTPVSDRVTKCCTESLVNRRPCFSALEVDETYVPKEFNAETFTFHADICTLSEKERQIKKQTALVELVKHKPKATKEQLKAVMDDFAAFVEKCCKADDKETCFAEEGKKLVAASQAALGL

- Efavirenz / HSA: 1.89±0.04 10^−4 molL^−1
Compound: O=C1Nc2ccc(Cl)cc2[C@@](C#CC2CC2)(C(F)(F)F)O1 [2a, efavirenz]
